The text below walks through data of US9884841B2, “Small molecule inhibitors of Mcl-1 and uses thereof” (The Regents of the University of Michigan, priority 2015, dated 2018).

In one experiment the target is Mcl-1 (Homo sapiens, UniProt Q07820). Description: FP based binding assay to Mcl-1 (Bid BH3 peptide probe).
Mcl-1, sequence (Q07820 whole entry): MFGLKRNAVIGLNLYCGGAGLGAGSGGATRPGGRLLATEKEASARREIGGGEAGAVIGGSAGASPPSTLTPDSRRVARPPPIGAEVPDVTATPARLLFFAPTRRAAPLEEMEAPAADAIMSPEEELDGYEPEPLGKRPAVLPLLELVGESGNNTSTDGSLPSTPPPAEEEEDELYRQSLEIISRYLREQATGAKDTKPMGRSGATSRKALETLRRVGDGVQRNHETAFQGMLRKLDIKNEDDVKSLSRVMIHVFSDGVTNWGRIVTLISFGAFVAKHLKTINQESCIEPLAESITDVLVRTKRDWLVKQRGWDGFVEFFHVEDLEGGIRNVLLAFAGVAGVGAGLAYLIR
Settings: not given
Take `O=C(O)c1ccccc1NS(=O)(=O)N1CCN(c2ccccc2)CC1` [Compound 460, 2-(1-phenylpiperazine-4-sulfonamido)benzoic acid]: the “Mcl-1 binding, in words” value is “deleterious”.

Staying with this experiment, now noted: Binding affinity of Mcl-1 inhibitors using FP based assay, Table 1.
In turn, `O=C(Nc1ccc(SCCc2ccccc2)cc1C(=O)O)c1ccccc1` [Compound 364, 2-Benzamido-5-(phenethylthio)benzoic acid] showed a Ki of 891 ± 185 nM.

Take `O=C(O)c1cc(SCCc2ccccc2)ccc1NS(=O)(=O)c1ccc(Oc2ccccc2)cc1` [Compound 376, 5-(Phenethylthio)-2-(4-phenoxyphenylsulfonamido)benzoic acid]: the Ki came out at 44 ± 14 nM. This Ki lies about 20-fold lower than the previous one. Regarding `O=C(O)c1cc(SCCc2ccccc2)ccc1NS(=O)(=O)c1ccc(-c2ccccc2)cc1` [Compound 378, 2-([1,1′-biphenyl]-4-ylsulfonamido)-5-(phenethylthio)benzoic acid], the Ki stood at 48 ± 12 nM. In the case of `O=C(O)c1cc(SCCc2ccccc2)ccc1NS(=O)(=O)c1ccccc1Br` [Compound 386, 2-(2-bromophenylsulfonamido)-5-(phenethylthio)benzoic acid], the affinity corresponds to a Ki of 381 ± 66 nM. On the same count and under the same terms, under `O=C(O)c1cc(SCc2ccccc2)ccc1NS(=O)(=O)c1ccccc1` [Compound 392, 5-(Benzylthio)-2-(phenylsulfonamido)benzoic acid] stands 993 ± 178 nM; under `O=C(CSc1ccc(NS(=O)(=O)c2ccccc2)c(C(=O)O)c1)Nc1ccccc1` [Compound 395], more than 2000 nM.

In turn, `O=C(O)c1cc(SCCc2ccccc2)ccc1NS(=O)(=O)N1CCN(c2ccccc2)CC1` [Compound 396, 5-(Phenethylthio)-2-(1-phenylpiperazine-4-sulfonamido)benzoic acid] had a Ki of 200 ± 30 nM. The same measure, in the same setting: under `O=C(O)c1cc(SCCc2ccccc2)ccc1NS(=O)(=O)Cc1ccc(Cl)cc1` [Compound 398] stands 241 ± 89 nM; under `O=C(O)c1cc(NCCc2ccccc2)ccc1NS(=O)(=O)c1ccccc1` [Compound 404, 5-(phenethylamino)-2-(phenylsulfonamido)benzoic acid], 5740 ± 749 nM; under `O=C(CCSc1ccc(NS(=O)(=O)c2ccccc2)c(C(=O)O)c1)Nc1ccccc1` [Compound 410], 233 ± 21 nM. Same read-out and setting: with `O=C(O)c1cc(SCCc2ccccc2)ccc1NS(=O)(=O)N1CCN(Cc2ccccc2)CC1` [Compound 414, 2-(1-benzylpiperazine-4-sulfonamido)-5-(phenethylthio)benzoic acid] the figure was 275 ± 21 nM. `Nc1ccc(SCCc2ccccc2)cc1C(=O)O` [Compound 416, 2-Amino-5-(phenethylthio)benzoic acid] gave a Ki of 1450 ± 132 nM. Compound `O=C(O)c1cc(SCCc2ccccc2)ccc1NS(=O)(=O)c1ccc(C2CCCCC2)cc1` [Compound 418, 2-(4-cyclohexylphenylsulfonamido)-5-(phenethylthio)benzoic acid] had a Ki of 31 ± 10 nM. For the compound `O=C(CCSc1ccc(NS(=O)(=O)N2CCN(c3ccccc3)CC2)c(C(=O)O)c1)Nc1ccccc1` [Compound 429], the Ki was found to be 2240 ± 431 nM. This Ki lies about 72-fold higher than the previous one. Same read-out and setting: under `CC(C)(C)c1ccc(N2CCN(S(=O)(=O)Nc3ccc(SCCC(=O)Nc4ccccc4)cc3C(=O)O)CC2)cc1` [Compound 435] stands 245 ± 48 nM. Take `O=C(O)c1cc(SCCc2ccccc2)ccc1NS(=O)(=O)CCc1ccccc1` [Compound 443, 5-(phenethylthio)-2-(2-phenylethylsulfonamido)benzoic acid]: the Ki turned out to be 343 ± 33 nM. On the same count and under the same terms, under `O=C(O)c1ccccc1NS(=O)(=O)c1ccc2ccccc2c1` [Compound 453, 2-(naphthalene-2-sulfonamido)benzoic acid] stands more than 2000 nM; under `O=C(CCc1ccccc1)Nc1ccc(SCCc2ccccc2)cc1C(=O)O` [Compound 454, 5-(phenethylthio)-2-(3-phenylpropanamido)benzoic acid], 874 ± 246 nM. Consider `O=C(O)c1ccccc1NS(=O)(=O)c1ccccc1` [Compound 455, 2-(phenylsulfonamido)benzoic acid], for which the Ki was more than 2000 nM. The same measure, in the same setting: under `O=C(O)c1cc(SCc2ccccc2)ccc1NS(=O)(=O)N1CCN(c2ccccc2)CC1` [Compound 456, 5-(benzylthio)-2-(1-phenylpiperazine-4-sulfonamido)benzoic acid] stands 387 ± 138 nM; under `O=C(O)c1cc(SCCc2ccccc2)ccc1NS(=O)(=O)c1ccccc1-c1ccccc1` [Compound 458, 2-([1,1′-biphenyl]-2-ylsulfonamido)-5-(phenethylthio)benzoic acid], 79 ± 25 nM.

As to `O=C(O)c1ccccc1NS(=O)(=O)N1CCN(c2ccccc2)CC1` [Compound 460, 2-(1-phenylpiperazine-4-sulfonamido)benzoic acid], the Ki was more than 2000 nM.

Consider `CCCc1ccc(-c2ccc(NS(=O)(=O)c3ccc4ccccc4c3)c(C(=O)O)c2)cc1` [Compound 466, 4-(naphthalene-2-sulfonamido)-4′-propyl-[1,1′-biphenyl]-3-carboxylic acid], for which the Ki came to 94 ± 17 nM. Compound `Nc1ccc(-c2ccccc2COc2cccc(C(F)(F)F)c2)cc1C(=O)O` [Compound 467, 4-amino-2′-((3-(trifluoromethyl)phenoxy)methyl)-[1,1′-biphenyl]-3-carboxylic acid] showed an inhibition constant (Ki) of 1160 ± 196 nM.

For the compound `O=C(O)c1cc(-c2ccccc2COc2cccc(C(F)(F)F)c2)ccc1NS(=O)(=O)c1ccc2ccccc2c1` [Compound 468, 4-(naphthalene-2-sulfonamido)-2′-((3-(trifluoromethyl)phenoxy)methyl)-[1,1′-biphenyl]-3-carboxylic acid], the Ki was found to be 50 ± 11 nM. The same measure, in the same setting: with `Nc1ccc(-c2ccc(COc3cccc(C(F)(F)F)c3)cc2)cc1C(=O)O` [Compound 469, 4-amino-4′-((3-(trifluoromethyl)phenoxy)methyl)-[1,1′-biphenyl]-3-carboxylic acid] the figure was 2360 ± 80 nM; with `O=C(O)c1cc(-c2ccc(COc3cccc(C(F)(F)F)c3)cc2)ccc1NS(=O)(=O)c1ccc2ccccc2c1` [Compound 471, 4-(naphthalene-2-sulfonamido)-4′-((3-(trifluoromethyl)phenoxy)methyl)-[1,1′-biphenyl]-3-carboxylic acid], 36 ± 6 nM; with `O=C(O)c1cc(-c2ccccc2COc2cccc3ccccc23)ccc1NS(=O)(=O)c1ccc2ccccc2c1` [Compound 473, 2′-((naphthalen-1-yloxy)methyl)-4-(naphthalene-2-sulfonamido)-[1,1′-biphenyl]-3-carboxylic acid], 31 ± 9 nM. On the same count and under the same terms, with `CC(C)c1cc(NS(=O)(=O)c2ccc3ccccc3c2)c(C(=O)O)cc1-c1ccc(COc2cccc(C(F)(F)F)c2)cc1` [Compound 474, 6-isopropyl-4-(naphthalene-2-sulfonamido)-4′-((3-(trifluoromethyl)phenoxy)methyl)-[1,1′-biphenyl]-3-carboxylic acid] the figure was 23 ± 3 nM; with `CC(C)c1cc(NS(=O)(=O)c2ccc(Oc3ccccc3)cc2)c(C(=O)O)cc1SCCc1ccccc1` [Compound 476, 4-isopropyl-5-(phenethylthio)-2-(4-phenoxyphenylsulfonamido)benzoic acid], 35 ± 13 nM; with `CC(C)c1cc(NS(=O)(=O)c2ccc(Oc3ccccc3)cc2)c(C(=O)O)cc1-c1ccc(COc2cccc(C(F)(F)F)c2)cc1` [Compound 477, 6-isopropyl-4-(4-phenoxyphenylsulfonamido)-4′-((3-(trifluoromethyl)phenoxy)methyl)-[1,1′-biphenyl]-3-carboxylic acid], 13 ± 3 nM. Same read-out and setting: under `CC(C)c1cc(NS(=O)(=O)c2ccc3ccccc3c2)c(C(=O)O)cc1SCCc1ccccc1` [Compound 478, 4-isopropyl-2-(naphthalene-2-sulfonamido)-5-(phenethylthio)benzoic acid] stands 70 ± 21 nM; under `Cc1cccc(-c2cc(NS(=O)(=O)N3CCN(c4ccc(C(C)(C)C)cc4)CC3)c(C(=O)O)cc2SCCC(=O)Nc2ccccc2)c1` [Compound 479], 66 ± 27 nM; under `CC(C)c1cc(NS(=O)(=O)c2ccc(Oc3ccc(F)cc3)cc2)c(C(=O)O)cc1-c1ccc(COc2cccc(C(F)(F)F)c2)cc1` [Compound 480, 4-(4-(4-fluorophenoxy)phenylsulfonamido)-6-isopropyl-4′-((3-(trifluoromethyl)phenoxy)methyl)-[1,1′-biphenyl]-3-carboxylic acid], 10 ± 3 nM. In turn, `COC(=O)c1cc(-c2ccc(COc3cccc(C(F)(F)F)c3)cc2)c(C(C)C)cc1NS(=O)(=O)c1ccc(Oc2ccc(F)cc2)cc1` [Compound 481, methyl 4-(4-(4-fluorophenoxy)phenylsulfonamido)-6-isopropyl-4′-((3-(trifluoromethyl)phenoxy)methyl)-[1,1′-biphenyl]-3-carboxylate] came in with a Ki of more than 2000 nM. Same read-out and setting: with `COC(=O)c1cc(-c2ccc(COc3cccc(C(F)(F)F)c3)cc2)c(C(C)C)cc1NS(=O)(=O)c1ccc2ccccc2c1` [Compound 482, methyl 6-isopropyl-4-(naphthalene-2-sulfonamido)-4′-((3-(trifluoromethyl)phenoxy)methyl)-[1,1′-biphenyl]-3-carboxylate] the figure was more than 2000 nM; with `CC(C)(C)c1ccc(N2CCN(C(=O)CCc3cccc(-c4ccc(C(=O)O)c(NS(=O)(=O)N5CCN(c6ccc(C(C)(C)C)cc6)CC5)c4)c3)CC2)cc1` [Compound 484], 42 ± 17 nM; with `Cc1cccc(-c2cc(NS(=O)(=O)c3ccccc3)c(C(=O)O)cc2SCCC(=O)Nc2ccccc2)c1` [Compound 485], 437 ± 67 nM. Still for that read-out and setting: under `COC(=O)c1cc(-c2ccc(COc3cccc(C(F)(F)F)c3)cc2)c(C(C)C)cc1NC(=O)c1ccc(Oc2ccccc2)cc1` [Compound 486, methyl 6-isopropyl-4-(4-phenoxybenzamido)-4′-((3-(trifluoromethyl)phenoxy)methyl)-[1,1′-biphenyl]-3-carboxylate] stands more than 2000 nM.

The experiment is the same for the next values; noted with them: R1 optimisation starting from 368.
For the compound `O=C(O)c1cc(SCCc2ccccc2)ccc1NS(=O)(=O)c1ccc(-c2ccc(Cl)cc2)cc1` [Compound 380, 2-(4′-chloro-[1,1′-biphenyl]-4-ylsulfonamido)-5-(phenethylthio)benzoic acid], the “improvement of binding potency” value turned out to be 16 fold.

Still in this experiment, the particulars now being: binding affinity to Mcl-1.
On to `O=C(O)c1cc(SCCc2ccccc2)ccc1NS(=O)(=O)c1ccc(-c2ccc(Cl)cc2)cc1` [Compound 380, 2-(4′-chloro-[1,1′-biphenyl]-4-ylsulfonamido)-5-(phenethylthio)benzoic acid], for which the Ki was 31 nM. This lies in the double-digit nanomolar range. The compound `O=C(O)c1cc(-c2ccc(COc3cccc4ccccc34)cc2)ccc1NS(=O)(=O)c1ccc2ccccc2c1` [Compound 475, 4′-((naphthalen-1-yloxy)methyl)-4-(naphthalene-2-sulfonamido)-[1,1′-biphenyl]-3-carboxylic acid] registered a Ki of 27 ± 5 nM.

Staying with this experiment, now noted: relative to 382.
Consider `O=C(O)c1cc(-c2ccc(COc3cccc4ccccc34)cc2)ccc1NS(=O)(=O)c1ccc2ccccc2c1` [Compound 475, 4′-((naphthalen-1-yloxy)methyl)-4-(naphthalene-2-sulfonamido)-[1,1′-biphenyl]-3-carboxylic acid], for which the “improvement in comparison with 382” value is listed as 6 fold. Consider `CC(C)c1cc(NS(=O)(=O)c2ccc3ccccc3c2)c(C(=O)O)cc1SCCc1ccccc1` [Compound 478, 4-isopropyl-2-(naphthalene-2-sulfonamido)-5-(phenethylthio)benzoic acid], for which the “improvement in comparison with 382” value worked out at 2.5 fold.
